Article PMC4082664 (Alcoholism, clinical and experimental research, 2011)
Read-outs that look alike come from different tables or passages of the source.

Assays:
[1] = molecular target: T1, CYP3A4 (Homo sapiens, UniProt P08684); assay: Spectral binding; conditions: for δAmax (maximum spectral change): 0.5 µM CYP3A4, 25°C, pH 7.4; for Type of spectral binding with CYP3A4: no ethanol; for Type of spectral binding with CYP3A4 at low concentrations: low concentrations (<0.5 µM), data not shown
[2] = molecular target: T1, CYP3A4; conditions: ref Kumar et al., 2010; cited from earlier work

T1 sequence (P08684 whole entry): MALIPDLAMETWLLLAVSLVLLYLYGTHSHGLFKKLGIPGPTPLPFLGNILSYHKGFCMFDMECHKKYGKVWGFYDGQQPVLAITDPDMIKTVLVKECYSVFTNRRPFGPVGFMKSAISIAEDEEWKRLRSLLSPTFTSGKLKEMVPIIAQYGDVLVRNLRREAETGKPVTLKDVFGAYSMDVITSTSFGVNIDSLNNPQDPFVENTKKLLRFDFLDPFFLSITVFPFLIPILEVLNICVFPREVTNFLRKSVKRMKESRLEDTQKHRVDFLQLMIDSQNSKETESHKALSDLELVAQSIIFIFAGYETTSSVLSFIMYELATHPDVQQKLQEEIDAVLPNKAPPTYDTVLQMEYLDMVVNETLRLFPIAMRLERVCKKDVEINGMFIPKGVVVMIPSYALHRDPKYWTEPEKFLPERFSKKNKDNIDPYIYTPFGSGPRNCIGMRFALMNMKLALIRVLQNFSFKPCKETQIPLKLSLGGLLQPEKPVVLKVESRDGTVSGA

δAmax (maximum spectral change) ([1]; 20 mM ethanol)	δAmax (maximum spectral change) ([1]; No ethanol)	Type of spectral binding with CYP3A4 [1]	Type of spectral binding with CYP3A4 at low concentrations [1]	Compound	Type of spectral binding with CYP3A4 [2]
0.006 ± 0.0003	0.011 ± 0.0001	type I	–	CC(C)(C)NC(=O)[C@@H]1C[C@@H]2CCCC[C@@H]2CN1C[C@@H](O)[C@H](Cc1ccccc1)NC(=O)[C@H](CC(N)=O)NC(=O)c1ccc2ccccc2n1 [Saquinavir]	–
–	–	–	–	CCO [ethanol]	type I
0.012 ± 0.0003	0.015 ± 0.0003	type I	weak type II	CCC[C@@]1(CCc2ccccc2)CC(O)=C([C@H](CC)c2cccc(NS(=O)(=O)c3ccc(C(F)(F)F)cn3)c2)C(=O)O1 [Tipranavir]	–
–	–	–	–	Cc1c(O)cccc1C(=O)N[C@@H](CSc1ccccc1)[C@H](O)CN1C[C@H]2CCCC[C@H]2C[C@H]1C(=O)NC(C)(C)C [nelfinavir]	high-affinity type I
0.012 ± 0.0002	0.013 ± 0.0003	type I	weak type II	COC(=O)N[C@H](C(=O)N[C@@H](Cc1ccccc1)[C@@H](O)CN(Cc1ccc(-c2ccccn2)cc1)NC(=O)[C@@H](NC(=O)OC)C(C)(C)C)C(C)(C)C [Atazanavir]	–

Compound	δAmax (maximum spectral change) ([1]; 20 mM ethanol)	δAmax (maximum spectral change) ([1]; No ethanol)	Type of spectral binding with CYP3A4 [1]	Type of spectral binding with CYP3A4 at low concentrations [1]	Type of spectral binding with CYP3A4 [2]
CC(C)CN(C[C@@H](O)[C@H](Cc1ccccc1)NC(=O)O[C@H]1CCOC1)S(=O)(=O)c1ccc(N)cc1 [Amprenavir]	–	–	did not show detectable spectral binding	–	–
